# According to patent publication US9687490B2, “Triazine derivatives for the treatment of conditions associated with nicotinamide adenine dinucleotide phosphate oxidase” (GLUCOX BIOTECH AB, priority 2012, dated 2017):
# “And” between values parts separate entries of the source, which are not always exact repeats. Identical values can stand only once.
# Test system: stroke induced mice
# Test: Stroke animal model: transient middle cerebral artery occlusion (tMCAO), infarct size by TTC staining
# Format: in vivo
# Settings: individual animals, 3.2 mg/kg i.p. at 2 h and 12 h, 1 h occlusion, 23 h reperfusion, C57Bl6 mice
# Description: Mice (10-12 wk), wild type C57BI6, 6 animals, were used:
# Test (n=3) stroke induced mouse treated i.p. with inventive compound M4 (N^2-(3,4-dimethylphenyl)-6-((4-(3-methoxyphenyl)piperazin-1-yl)methyl)-1,3,5-triazine-2,4-diamine).
# M4 preparation for intra peritoneal i.p. administration: 3.5 mg of M4 were first dissolved in 1 ml of DMSO. After the substance was totally dissolved, 5 ml of 20% Cremophor ELP in PBS (phosphate buffered saline solution) was added. Thereafter an additional 4 ml of PBS was added. The 20% Cremophor ELP solution was prepared by dissolving 10.5 g of Cremophor in 50 ml of PBS.
# Injection volume of M4: The dose was 3.2 mg/kg, calculated for each animal at each event of administration (2 h and 12 h).
# • 1. Transient middle cerebral artery occlusion (tMCAO) by blocking with a filament for 1 h. • 2. Reperfusion after 1 h by removing filament • 3. Injection of M4 by i.p. after 2 h and repeated injection i.p. after 12 h • 4. Sacrifice the animal after 24 h and infarct size is determined by triphenyl tetrazolium chloride (TTC) staining—Thus the procedure of middle cerebral artery occlusion (MCAO); 1 h occlusion and 23 h reperfusion. • 5. […]
# Mice were killed 24 hours after tMCAO. […] The occurrence of Intra Cerebral Hemorrhage (ICH) was macroscopically assessed on whole brains and again after the 2-mm-thick coronal brain slices were cut (see above) before TTC staining. […]
smiles,measurement,value
"COc1cccc(N2CCN(Cc3nc(N)nc(Nc4ccc(C)c(C)c4)n3)CC2)c1 [M4, N^2-(3,4-dimethylphenyl)-6-((4-(3-methoxyphenyl)piperazin-1-yl)methyl)-1,3,5-triazine-2,4-diamine]",Infarct volume,73 mm^3 and 145 mm^3 and 134 mm^3
